Results: PubChem BioAssay (NCI)
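Tested at 5 concentrations; 48 h exposure; 96-well plates; endpoints linearly interpolated, else capped at highest concentration. At the GI50, growth is halved. TGI: total growth inhibition.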

What was measured:
Test in all cases: DTP human tumour cell line panel, 48 h
RXF 393 renal = tested on: RXF 393 renal
BT-549 breast = tested on: BT-549 breast
HS 578T breast = tested on: HS 578T breast
M14 melanoma = tested on: M14 melanoma
ACHN renal = tested on: ACHN renal
NCI-H460 lung = tested on: NCI-H460 lung
SNB-19 CNS = tested on: SNB-19 CNS
UACC-62 melanoma = tested on: UACC-62 melanoma
HOP-92 NSCLC = tested on: HOP-92 NSCLC
SK-MEL-5 melanoma = tested on: SK-MEL-5 melanoma

Compound | GI50 (RXF 393 renal) | TGI (RXF 393 renal) | GI50 (BT-549 breast) | TGI (BT-549 breast) | GI50 (HS 578T breast) | TGI (HS 578T breast) | GI50 (M14 melanoma) | TGI (M14 melanoma) | GI50 (ACHN renal) | TGI (ACHN renal) | GI50 (NCI-H460 lung) | TGI (NCI-H460 lung) | GI50 (SNB-19 CNS) | TGI (SNB-19 CNS) | GI50 (UACC-62 melanoma) | TGI (UACC-62 melanoma) | GI50 (HOP-92 NSCLC) | TGI (HOP-92 NSCLC) | GI50 (SK-MEL-5 melanoma) | TGI (SK-MEL-5 melanoma)
COC(=O)/C=C/C=C(c1ccccc1)c1ccccc1 | 6.24 µM | 30 µM | 3.4 µM | 19.6 µM | 8.65 µM | 46 µM | 3.36 µM | 17.5 µM | 5.56 µM | > 100 µM | 3.67 µM | 15.2 µM | 9.31 µM | > 100 µM | 5.43 µM | 25.4 µM | 3.52 µM | 38.8 µM | 3.43 µM | 13.8 µM
O=C(c1ccccc1)C1N=NCC1c1ccc([N+](=O)[O-])cc1 (centres undefined) | – | – | – | 65.8 µM | – | > 100 µM | – | > 100 µM | – | > 100 µM | – | > 100 µM | – | > 100 µM | – | > 100 µM | – | 88.1 µM | – | 59.6 µM
CCCN=Cc1cc(Cc2ccc(O)c(C=NCCC)c2)ccc1O | – | 37.7 µM | – | > 100 µM | – | 92.2 µM | – | 7.35 µM | – | 53.4 µM | – | 51.9 µM | – | 12.2 µM | – | 22.7 µM | – | 8.03 µM | – | 17.2 µM
Nc1cc2cccc[n+]2c2cc(Cl)ccc12 | 87.9 µM | – | 7.24 µM | 25.2 µM | 16.6 µM | 51.4 µM | 19.3 µM | 47.4 µM | 34.6 µM | – | 18 µM | 49.6 µM | 9.23 µM | 55.5 µM | 18.7 µM | 45.9 µM | 22.7 µM | 69.6 µM | 10.4 µM | 23.2 µM
CNC(=O)n1ccc2cc(Oc3ccnc(NC(=O)c4ccc(C5CCN(CCO)CC5)cc4)c3)c(OCCOC)cc21 | 1.34 µM | 3.09 µM | 2.35 µM | 14.2 µM | 1.84 µM | 7.37 µM | 1.98 µM | 4.24 µM | 3.16 µM | 10.7 µM | 3.22 µM | 10.2 µM | 7.47 µM | 21.5 µM | 5.23 µM | 17.5 µM | 3.48 µM | 20.6 µM | 1.96 µM | 3.86 µM
Cc1[c-]onc1C.Cc1[c-]onc1C.[Ag].[Ag].[NH-]S(=O)(=O)c1ccc(N=Nc2cc(N=Nc3ccc(S([NH-])(=O)=O)cc3)c3c(NC(=O)C(Cl)Cl)cccc3c2OC(=O)C(Cl)Cl)cc1 | 6.47 µM | 15.6 µM | 7.57 µM | 14.8 µM | 5.81 µM | > 50 µM | 8.18 µM | 18.4 µM | 5.13 µM | 11.9 µM | 6.53 µM | 18.1 µM | 7.38 µM | 16.9 µM | 7.36 µM | 14.5 µM | 7.85 µM | 18.4 µM | 1.71 µM | 6.07 µM
CCN(CC)c1ccc(C(=C2C=CC(=[N+](CC)Cc3cccc(S(=O)(=O)O)c3)C=C2)c2ccc(N(CC)Cc3cccc(S(=O)(=O)O)c3)cc2)cc1 | 7.94 µM | 76.1 µM | 5.45 µM | > 91.7 µM | 2.86 µM | > 30.5 µM | 4.93 µM | 39.2 µM | 9.48 µM | > 68.5 µM | 3.93 µM | 39.1 µM | 14.2 µM | > 100 µM | 13 µM | 87 µM | 15.2 µM | 65.8 µM | 10.1 µM | 24.1 µM
CC/C=C\C=C/C(=O)N/C=C/CC1Cc2cccc(O)c2C(=O)O1 (centres undefined) | 16.1 µM | 35.8 µM | 25.8 µM | 87.3 µM | 28.9 µM | > 100 µM | 22.7 µM | 64.2 µM | 22.3 µM | 52.1 µM | 24.3 µM | 62.1 µM | 32.9 µM | > 100 µM | 22.6 µM | > 100 µM | – | – | 5.63 µM | 27.3 µM
CCCC[C@H](NC(=O)[C@H]1CCCN1C)C(=O)N(C)[C@H](C[C@@H](OC(C)=O)c1nc(C(=O)N[C@@H](Cc2ccccc2)C[C@H](C)C(=O)OCC)cs1)C(C)C | 0.00745 µM | 11.3 µM | 0.0168 µM | 0.447 µM | 0.0186 µM | 6.92 µM | 0.0163 µM | 3.77 µM | – | – | 0.0105 µM | 4.04 µM | 0.01 µM | > 33.3 µM | 0.00489 µM | > 33.3 µM | 1.9 µM | 32.7 µM | < 0.00333 µM | 0.063 µM
CN(C)S(=O)(=O)c1ccc(NC(=O)COC(=O)c2ccc(S(=O)(=O)N3CCCCC3)cc2)cc1 | > 100 µM | > 100 µM | > 100 µM | > 100 µM | > 100 µM | > 100 µM | – | – | > 100 µM | > 100 µM | > 100 µM | > 100 µM | > 100 µM | > 100 µM | > 100 µM | > 100 µM | > 100 µM | > 100 µM | > 100 µM | > 100 µM
C[C@H](Nc1ncnc2nc[nH]c12)c1cc2cccc(Cl)c2c(=O)n1-c1ccccc1 | 0.273 µM | 9.41 µM | 1.57 µM | > 83.1 µM | 0.631 µM | 14.5 µM | 21.1 µM | > 100 µM | 5 µM | > 100 µM | 12.6 µM | > 100 µM | 17.7 µM | > 100 µM | 2.6 µM | > 100 µM | 1.38 µM | 69.7 µM | 25.8 µM | > 100 µM
COc1cc(C2c3cc4c(cc3OC(N3CCCC3)C2C)OCO4)cc(OC)c1OC (centres undefined) | – | 2.41 µM | – | 11.5 µM | – | 2.3 µM | – | 12.8 µM | – | 38.3 µM | – | 14.5 µM | – | 15.4 µM | – | 20.7 µM | – | 21.2 µM | – | 5.06 µM
COC(=O)[C@@H](C)C[C@H](Cc1ccccc1)NC(=O)c1nc([C@@H](C[C@H](C(C)C)N(C)C(=O)[C@@H](NC(=O)[C@H]2CCCCN2C)C(C)C)OC(C)=O)sc1C | < 0.00167 µM | > 16.7 µM | < 0.00167 µM | 0.0568 µM | 0.0024 µM | > 16.7 µM | – | – | 0.00585 µM | > 16.7 µM | < 0.00167 µM | > 16.7 µM | < 0.00167 µM | > 16.7 µM | < 0.00167 µM | > 16.7 µM | 0.00323 µM | 16.5 µM | < 0.00167 µM | 0.0565 µM
